Data: article PMC12299140, “Synthetic Analogs of the Alkaloid Cassiarin A with Enhanced Antimalarial Activity” (Pharmaceuticals, 2025)
Where two headings read alike, the source gives them in different places.

Legend:
[1] = system: chloroquine-sensitive Plasmodium falciparum strain 3D7; assay: Malstat assay, chloroquine-sensitive strain 3D7; format: cell-based; details: for IC50 / IC90: Plasmodium falciparum; for IC50: read-out: P. falciparum 3D7 IC50; for IC90: read-out: P. falciparum 3D7 IC90
Description: (§1) The chloroquine-sensitive Plasmodium falciparum strain 3D7 and the chloroquine-resistant strain Dd2 were cultivated in vitro at 5% hematocrit in complete medium comprising RPMI 1640/HEPES medium supplemented with 0.5% w/w Albumax II, 10 µg/mL gentamicin, and 50 µg/mL hypoxanthine. Cultures were maintained at 37 °C in an atmosphere of 5% CO2, 5% O2, and 90% N2. To enrich parasites in the ring-stage, an asexual blood stage culture was synchronized. The culture was centrifuged at 1000× g for 3 min, and the supernatant was discarded. The cell pellet was resuspended in 5% sorbitol and incubated at room temperature for 10 min. Subsequently, the culture was centrifuged, and the pellet was washed with RPMI 1640/HEPES medium. After a final centrifugation step, the cell pellet was resuspended in fresh complete medium and returned to standard culture conditions for further cultivation. Human serum and erythrocyte concentrate were obtained from the Department of Transfusion Medicine, University Hospital Aachen, Germany. Donor sera and blood samples were pooled and kept anonymous. The work with human blood was approved by the Ethics Commission of the RWTH University Hospital (EK 007/13).
(§2) Synchronized ring-stage cultures of the P. falciparum strains 3D7 and Dd2 mixed with the compound were plated in triplicate into 96-well plates (200 µL/well) at a parasitemia of 1%. […] In addition, a dilution series with chloroquine with concentrations between 500 nM and 4 nM was used as a positive control and 0.5% v/v DMSO was used as a negative control. The cultures were then incubated under standard culture conditions for 72 h. Following incubation, 20 µL of the culture was transferred in triplicate to a new 96-well plate and mixed with 100 µL of Malstat reagent (0.1% v/v Triton X-100, 1 g L-lactate, 0.33 g Tris and 33 mg of 3-acetylpyridine adenine dinucleotide in 100 mL distilled water, pH 9.0) and 20 µL mixture of NBT and diaphorase (1:1 v/v; 1 mg/mL stock each). After colour development in the wells, absorbance was measured at OD630nm using a Tecan Plate Reader. The IC50 and IC90 values of the compounds were then determined using the GraphPad Prism software.

[2] = system: chloroquine-resistant P. falciparum strain Dd2; assay: Malstat assay, chloroquine-resistant strain Dd2; format: cell-based, Plasmodium falciparum; details: for RI, resistance index = IC50 (Dd2)/IC50 (3D7): Dd2 vs 3D7; for IC50 / IC90: Plasmodium falciparum; for IC50: read-out: IC50 P. falciparum Dd2; for IC90: read-out: IC90 P. falciparum Dd2
Description: as §1, §2

[3] = system: Human umbilical vein endothelial cells (HUVECs); details: cited from earlier work
[4] = system: Human umbilical vein endothelial cells (HUVECs); assay: Cytotoxicity assay (CellTiter-Blue cell viability assay); format: cell-based; details: HUVEC, 72 h
Description: Human umbilical vein endothelial cells (HUVECs) were purchased from Promocell (Heidelberg, Germany) and cultivated with ECGM Kit enhanced (PELO Biotech, Planegg, Germany) supplemented with 10% (FCS) (PAA Laboratories, Cölbe, Germany) and 1% penicillin/streptomycin/amphotericin B (all purchased from PAN Biotech). Cells were cultured at 37 °C with 5% CO2 with constant humidity. Cell proliferation was assessed using the CellTiter-Blue cell viability assay (Promega, Madison, WI, USA). Cells were treated as indicated for 72 h and 4 h before termination CellTiter-Blue reagent was added in a ratio of 1:10. Fluorescence intensity was determined by using the SpectraFluor Plus plate reader (Tecan, Männedorf, Switzerland) at 550 nm excitation and 595 nm emission wavelength. Fluorescence intensity is proportional to the cell number. Non-linear regression was carried out using the log(inhibitor) vs. response–variable slope (four parameters) function of GraphPad Prism (San Diego, CA, USA).
Figure 4 Cytotoxic effects of cassiarin A (5) and analogs 11b, 11c, and 11d on proliferation of HUVEC assessed by CellTiter-Blue^TM assay. IC50 values were determined using the log(inhibitor) vs. response—variable slope (four parameters) function of GraphPad Prism (10.4.0). Data are shown as mean ± SD.

[5] = chloroquine-sensitive strain 3D7, Malstat assay, 72 h
[6] = chloroquine-resistant strain Dd2, Malstat assay, 72 h

SMILES	RI, resistance index = IC50 (Dd2)/IC50 (3D7) [2]	IC50 [1, 5] [nM]	IC90 [1, 5] [nM]	IC50 [2, 6] [nM]	IC90 [2, 6] [nM]	IC50 [4] [nM]	other results
CCN(CC)CCCC(C)Nc1ccnc2cc(Cl)ccc12 (centres unmarked) [Compound 2, chloroquine, reference compound]	5.3	–	–	–	–	–	IC50 ([1]; 3D7, 72 h): 30 ± 10 nM; IC90 ([1]; 3D7, 72 h): 50 ± 10 nM; IC50 ([2]; DD2, 72 h): 160 ± 40 nM; IC90 ([2]; DD2, 72 h): 230 ± 130 nM; selectivity index (=IC50 (HUVEC)/IC50 (3D7)) [3]: 1987
CC1=Cc2nc(C)cc3cc(O)cc(c23)O1 [Compound 5, Cassiarin A]	1.4	9600 ± 630	16400 ± 3070	13600 ± 3950	20500 ± 11900	16400	–
CC1=Cc2nc(CN)cc3cc(O)cc(c23)O1 [Compound 11a, 5-(Aminomethyl)-2-methylpyrano[2,3,4-ij]isoquinolin-8-ol]	–	31900 ± 11500	53300 ± 10500	–	–	–	–
Oc1cc2c3c(nc(-c4ccccc4)cc3c1)C=C(c1ccccc1)O2 [Compound 11b, 2,5-Diphenylpyrano[2,3,4-ij]isoquinolin-8-ol]	–	2000 ± 180	2900 ± 530	–	–	2220	–
Cc1cc2cc(O)cc3c2c(n1)C=C(c1ccccc1)O3 [Compound 11c, 5-Methyl-2-phenylpyrano[2,3,4-ij]isoquinolin-8-ol]	4.3	400 ± 40	500 ± 110	1700 ± 740	2100 ± 1080	1230	–
NCc1cc2cc(O)cc3c2c(n1)C=C(c1ccccc1)O3 [Compound 11d, 5-(Aminomethyl)-2-phenylpyrano[2,3,4-ij]isoquinolin-8-ol]	2.0	600 ± 110	1000 ± 280	1200 ± 320	1800 ± 170	680	–
OCc1cc2cc(O)cc3c2c(n1)C=C(c1ccccc1)O3 [Compound 11e, 5-(Hydroxymethyl)-2-phenylpyrano[2,3,4-ij]isoquinolin-8-ol]	–	2100 ± 380	2700 ± 220	–	–	–	–
OCCc1cc2cc(O)cc3c2c(n1)C=C(c1ccccc1)O3 [Compound 11f, 5-(2-Hydroxyethyl)-2-phenylpyrano[2,3,4-ij]isoquinolin-8-ol]	–	1700 ± 200	3400 ± 1280	–	–	–	–
Cc1cc2cc(O)cc3c2c(n1)C=C(c1ccc(O)cc1)O3 [Compound 11g, 2-(4-Hydroxyphenyl)-5-methylpyrano[2,3,4-ij]isoquinolin-8-ol]	4.8	400 ± 30	900 ± 540	1900 ± 1010	5900 ± 3420	–	–
CCCCC1=Cc2nc(C)cc3cc(O)cc(c23)O1 [Compound 18a, 2-Butyl-5-methylpyrano[2,3,4-ij]isoquinolin-8-ol]	–	1900 ± 190	2500 ± 490	–	–	–	–
COc1cc2c3c(nc(C)cc3c1)C=C(c1ccc(OCCO)cc1)O2 [Compound 18b, 2-(4-(8-Methoxy-5-methylpyrano[2,3,4-ij]isoquinolin-2-yl)phenoxy)ethan-1-ol]	–	2200 ± 580	3200 ± 680	–	–	–	–
COC(=O)c1ccc(C2=Cc3nc(C)cc4cc(O)cc(c34)O2)cc1 [Compound 18c, Methyl 4-(8-hydroxy-5-methylpyrano[2,3,4-ij]isoquinolin-2-yl)benzoate]	2.0	200 ± 50	400 ± 140	400 ± 210	800 ± 580	–	–
C#CCOc1cc2c3c(nc(C)cc3c1)C=C(c1ccccc1)O2 [Compound 24, 5-Methyl-2-phenyl-8-(prop-2-in-1-yloxy)pyrano[2,3,4-ij]isoquinoline]	–	≥ 100000	≥ 100000	–	–	–	antiplasmodial activity (in words) ([1]; strain 3D7, Malstat assay): complete loss of antiplasmodial activity
